pIC50: −log10 of the molar value.
Assays:
human PASK [1] = target: T1, human PASK (Homo sapiens, UniProt Q96RG2); test: 33P radioactive kinase assay; format: biochemical; details: 33P radioactive PASK kinase assay, 10 μM ATP, ZIPtide 1 μM
T1 construct: purchased ThermoFisher Scientific PR7013A
Method: The principle of the ^33P radioactive kinase assay consists in measuring the incorporated ^33P into the ZIPtide peptide substrate when phosphorylated by human PASK using [^33P]-[…]-ATP and ATP, which correlates with kinase activity.
The test compounds are prepared as a serial dilution of 10 point dose responses with 1/5 dilution steps in 100% DMSO starting from 0.2 or 2 mM highest concentration, diluted 1/20 in water and 5 μL is transferred to the assay plates (Greiner, Cat #651201).
(§1) 1% DMSO and 10 μM staurosporine final concentrations are used respectively as negative and positive controls.
11 μL of enzyme-substrate mixture is added on the assay plates. The reactions are started by adding 9 μL ATP mixture, consisting of non-labeled and ^33P-labeled ATP, on the assay plates.
The reactions are stopped by adding 25 μL phosphoric acid (150 mM) to the reactions.
The completely terminated kinase reactions are transferred using a harvester on pre-wetted UniFilter-96 plates (UniFilter-96 GF/B, PerkinElmer Inc., Cat #6005177).
After harvesting the kinase reactions, the filter plates are washed 6 times with phosphoric acid (75 mM). The back of the UniFilter-96 plates are sealed and 40 μL MicroScint-20 (PerkinElmer Inc., Cat #6013621) is added to each well. The top of each plate is sealed with TopSeal-A (PerkinElmer Inc., Cat #6050185). Read-out is performed with a TopCount instrument (PerkinElmer Inc.).
Raw data are generated following the read-out performed on the TopCount, used to calculate percentage inhibition (PIN) values and plotted to generate dose response curves and derive the average half maximal inhibitory concentrations (IC50) reported in Table VI.

human PASK [2] = target: T1, human PASK; test: ADP-Glo kinase assay; format: biochemical; details: ADPGlo PASK kinase assay, 25 μM ATP, ZIPtide 25 μM
Method: The ADP-Glo™ kinase assay is a luminescent technology assay which measures the ADP formed from a kinase reaction. In this specific study, the kinase reactions consisted of the phosphorylation of the ZIPtide peptide substrate by human recombinant PASK. In a second step the kinase reaction is terminated and all the remaining ATP is depleted. In a final step the ADP is converted into ATP and this newly synthesized ATP is measured by using a luciferase/luciferin reaction. The generated light is measured using an Envision plate reader, wherein the luminescent signal obtained positively correlates with the kinase activity.
The test compounds are prepared as a serial dilution of 10 point dose responses with 1/5 dilution steps in 100% DMSO starting from 2 mM highest concentration, diluted 1/20 in water and 1 μL is transferred to the assay plates (PerkinElmer Inc., Cat #6007290).
as §1
2 μL enzyme-substrate mixture is added to the assay plates.
The reaction is started by adding 2 μL diluted ATP on the assay plates immediately after addition of the enzyme-substrate mixture to the compound. Plates are centrifuged for a few seconds at 1000 rpm and gently shaken for 2 min followed by an incubation at RT for 120 min.
The reactions are stopped and the unconsumed ATP is depleted by adding 5 μL ADP-Glo Reagent (Promega, Cat #V912B) to the reaction. The plates are centrifuged for a few seconds at 1000 rpm and incubated at RT for 40 min (ATP depletion).
The ADP is converted to ATP and luciferase and luciferin is introduced to detect ATP by adding 10 μL Kinase Detection Reagent (Promega, Cat #V913B+V914B) to the reaction. The plates are centrifuged for a few seconds at 1000 rpm and incubated at RT for 30 min (ADP detection).
Luminescence is measured on an Envision plate reader (PerkinElmer Inc.).
Raw data are generated following the read-out performed on the Envision plate reader, used to calculate percentage inhibition (PIN) values and plotted to generate dose response curves and derive the average half maximal inhibitory concentrations (IC50) reported in Table VIII.

T1 sequence (Q96RG2 whole entry): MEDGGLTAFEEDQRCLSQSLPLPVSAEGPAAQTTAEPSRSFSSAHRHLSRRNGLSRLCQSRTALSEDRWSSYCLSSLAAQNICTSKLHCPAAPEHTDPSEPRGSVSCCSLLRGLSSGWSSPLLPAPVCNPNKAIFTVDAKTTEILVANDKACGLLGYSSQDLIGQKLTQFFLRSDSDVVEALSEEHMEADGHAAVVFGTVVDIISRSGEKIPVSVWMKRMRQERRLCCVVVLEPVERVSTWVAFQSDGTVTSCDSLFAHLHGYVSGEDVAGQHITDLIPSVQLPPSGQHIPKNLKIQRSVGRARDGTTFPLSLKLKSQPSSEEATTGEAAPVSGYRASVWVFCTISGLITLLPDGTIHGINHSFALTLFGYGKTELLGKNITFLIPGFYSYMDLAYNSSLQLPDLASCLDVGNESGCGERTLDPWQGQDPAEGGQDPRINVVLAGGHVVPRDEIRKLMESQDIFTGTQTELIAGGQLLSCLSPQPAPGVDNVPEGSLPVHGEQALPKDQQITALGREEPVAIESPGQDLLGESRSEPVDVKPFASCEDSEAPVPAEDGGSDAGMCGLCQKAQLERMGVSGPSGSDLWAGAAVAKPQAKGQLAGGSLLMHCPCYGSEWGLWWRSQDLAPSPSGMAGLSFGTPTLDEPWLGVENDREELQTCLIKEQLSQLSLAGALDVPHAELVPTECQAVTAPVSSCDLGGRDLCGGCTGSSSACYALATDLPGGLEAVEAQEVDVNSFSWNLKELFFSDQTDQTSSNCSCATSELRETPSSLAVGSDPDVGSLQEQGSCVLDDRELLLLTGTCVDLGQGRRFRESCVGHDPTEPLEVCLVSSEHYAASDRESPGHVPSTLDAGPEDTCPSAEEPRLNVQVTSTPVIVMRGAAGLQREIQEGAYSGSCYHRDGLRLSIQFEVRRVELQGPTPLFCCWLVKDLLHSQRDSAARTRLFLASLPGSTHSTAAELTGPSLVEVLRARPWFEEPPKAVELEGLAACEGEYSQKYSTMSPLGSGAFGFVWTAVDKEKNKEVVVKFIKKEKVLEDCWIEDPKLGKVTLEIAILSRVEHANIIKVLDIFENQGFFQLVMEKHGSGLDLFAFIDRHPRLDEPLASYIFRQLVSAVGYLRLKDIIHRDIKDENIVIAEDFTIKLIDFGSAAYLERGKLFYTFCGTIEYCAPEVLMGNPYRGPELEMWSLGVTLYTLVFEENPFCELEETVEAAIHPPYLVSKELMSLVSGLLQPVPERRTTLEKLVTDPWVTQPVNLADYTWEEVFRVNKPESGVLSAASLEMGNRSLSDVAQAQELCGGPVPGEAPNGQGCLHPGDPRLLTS

SMILES	pIC50 (human PASK [1])	pIC50 (human PASK [2])
Cc1nn(C)c(C)c1-c1cnn2ccc(-c3cc(C(=O)OCC(=O)N(C)C)co3)cc12 [Cpd 7, [2-(dimethylamino)-2-oxo-ethyl] 5-[3-(1,3,5-trimethylpyrazol-4-yl)pyrazolo[1,5-a]pyridin-5-yl]furan-3-carboxylate]	7.00 to 8.00	
Cc1nn(C)c(C)c1-c1cnn2ccc(-c3cc(C(=O)NS(C)(=O)=O)co3)cc12 [Cpd 21, N-methylsulfonyl-5-[3-(1,3,5-trimethylpyrazol-4-yl)pyrazolo[1,5-a]pyridin-5-yl]furan-3-carboxamide]	7.00 to 8.00	
CCOC(=O)c1coc(-c2ccn3ncc(-c4c(C)nn(C)c4C)c3c2)c1 [Cpd 6, ethyl 5-[3-(1,3,5-trimethylpyrazol-4-yl)pyrazolo[1,5-a]pyridin-5-yl]furan-3-carboxylate]	7.00 to 8.00	
Cc1nn(C(C)C)c(C)c1-c1cnn2ccc(-c3ncc(C(=O)O)s3)cc12 [Cpd 30, 2-[3-(1-isopropyl-3,5-dimethyl-pyrazol-4-yl)pyrazolo[1,5-a]pyridin-5-yl]thiazole-5-carboxylic acid]	8.00 to 11.00	8.00 to 11.00
Cn1cc(-c2cnn3ccc(-c4cc(C(=O)O)co4)cc23)cn1 [Cpd 3, 5-[3-(1-methylpyrazol-4-yl)pyrazolo[1,5-a]pyridin-5-yl]furan-3-carboxylic acid]	7.00 to 8.00	
Cc1noc(C)c1-c1cnn2ccc(-c3cc(C(=O)O)c(C4CCOCC4)o3)cc12 [Cpd 44, 5-[3-(3,5-dimethylisoxazol-4-yl)pyrazolo[1,5-a]pyridin-5-yl]-2-tetrahydropyran-4-yl-furan-3-carboxylic acid]	8.00 to 11.00	8.00 to 11.00
Cc1c(-c2cnn3ccc(-c4nc(C(=O)O)co4)cc23)cnn1C [Cpd 33, 2-[3-(1,5-dimethylpyrazol-4-yl)pyrazolo[1,5-a]pyridin-5-yl]oxazole-4-carboxylic acid]	7.00 to 8.00	
Cn1cc(-c2cnn3ccc(-c4cc(C(=O)O)c(C(=O)Nc5ccccc5)o4)cc23)cn1 [Cpd 1, 5-[3-(1-methylpyrazol-4-yl)pyrazolo[1,5-a]pyridin-5-yl]-2-(phenylcarbamoyl) furan-3-carboxylic acid]	8.00 to 11.00	
COc1nc(-c2ccn3ncc(-c4c(C)nn(C)c4C)c3c2)sc1C(N)=O [Cpd 11, 4-methoxy-2-[3-(1,3,5-trimethylpyrazol-4-yl)pyrazolo[1,5-a]pyridin-5-yl]thiazole-5-carboxamide]	8.00 to 11.00	
Cc1noc(C)c1-c1cnn2ccc(-c3nc(C(F)(F)F)c(C(=O)O)o3)cc12 [Cpd 36, 2-[3-(3,5-dimethylisoxazol-4-yl)pyrazolo[1,5-a]pyridin-5-yl]-4-(trifluoromethyl) oxazole-5-carboxylic acid]	6.30 to 7.00	6.30 to 7.00
Cc1noc(C)c1-c1cnn2ccc(-c3ncc(C(=O)O)s3)cc12 [Cpd 25, 2-[3-(3,5-dimethylisoxazol-4-yl)pyrazolo[1,5-a]pyridin-5-yl]thiazole-5-carboxylic acid]	8.00 to 11.00	
Cc1noc(C)c1-c1cnn2ccc(-c3nc(C(=O)O)co3)cc12 [Cpd 20, 2-[3-(3,5-dimethylisoxazol-4-yl)pyrazolo[1,5-a]pyridin-5-yl]oxazole-4-carboxylic acid]	7.00 to 8.00	6.30 to 7.00
CCOc1nc(-c2ccn3ncc(-c4c(C)noc4C)c3c2)sc1C(=O)O [Cpd 17, 2-[3-(3,5-dimethylisoxazol-4-yl)pyrazolo[1,5-a]pyridin-5-yl]-4-ethoxy-thiazole-5-carboxylic acid]	8.00 to 11.00	8.00 to 11.00
Cc1noc(C)c1-c1cnn2ccc(-c3ccc(C(=O)O)o3)cc12 [Cpd 31, 5-[3-(3,5-dimethylisoxazol-4-yl)pyrazolo[1,5-a]pyridin-5-yl]furan-2-carboxylic acid]	7.00 to 8.00	
Cc1noc(C)c1-c1cnn2ccc(-c3nc(C(F)F)c(C(=O)O)s3)cc12 [Cpd 45, 4-(difluoromethyl)-2-[3-(3,5-dimethylisoxazol-4-yl)pyrazolo[1,5-a]pyridin-5-yl]thiazole-5-carboxylic acid]	7.00 to 8.00	
Cc1noc(C)c1-c1cnn2ccc(-c3nc(C(=O)O)c(C)o3)cc12 [Cpd 34, 2-[3-(3,5-dimethylisoxazol-4-yl)pyrazolo[1,5-a]pyridin-5-yl]-5-methyl-oxazole-4-carboxylic acid]	7.00 to 8.00	7.00 to 8.00
Cc1nn(C)c(C)c1-c1cnn2ccc(-c3cc(C(=O)O)c(CC(C)C)o3)cc12 [Cpd 27, 2-isobutyl-5-[3-(1,3,5-trimethylpyrazol-4-yl)pyrazolo[1,5-a]pyridin-5-yl]furan-3-carboxylic acid]	8.00 to 11.00	
COC(=O)c1coc(-c2ccn3ncc(-c4c(C)nn(C)c4C)c3c2)c1 [Cpd 5, methyl 5-[3-(1,3,5-trimethylpyrazol-4-yl)pyrazolo[1,5-a]pyridin-5-yl]furan-3-carboxylate]	7.00 to 8.00	
Cc1nn(C)c(C)c1-c1cnn2ccc(-c3cc(C(=O)NS(=O)(=O)C4CC4)co3)cc12 [Cpd 22, N-cyclopropylsulfonyl-5-[3-(1,3,5-trimethylpyrazol-4-yl)pyrazolo[1,5-a]pyridin-5-yl]furan-3-carboxamide]	7.00 to 8.00	
Cc1noc(C)c1-c1cnn2ccc(-c3cc(C(=O)O)c(C4=CCOCC4)o3)cc12 [Cpd 41, 2-(3,6-dihydro-2H-pyran-4-yl)-5-[3-(3,5-dimethyl-isoxazol-4-yl)pyrazolo[1,5-a]pyridin-5-yl]furan-3-carboxylic acid]	8.00 to 11.00	

Now from value to compound:

pIC50 (human PASK [1])	pIC50 (human PASK [2])	SMILES
8.00 to 11.00	8.00 to 11.00	Cc1noc(C)c1-c1cnn2ccc(-c3cc(C(=O)O)co3)cc12 [Cpd 4, 5-[3-(3,5-dimethylisoxazol-4-yl)pyrazolo[1,5-a]pyridin-5-yl]furan-3-carboxylic acid]
8.00 to 11.00		Cc1noc(C)c1-c1cnn2ccc(-c3cc(C(=O)O)c(C)o3)cc12 [Cpd 19, 5-[3-(3,5-dimethylisoxazol-4-yl)pyrazolo[1,5-a]pyridin-5-yl]-2-methyl-furan-3-carboxylic acid]
8.00 to 11.00		Cc1nn(C)c(C)c1-c1cnn2ccc(-c3cc(C(=O)O)c(C)o3)cc12 [Cpd 16, 2-methyl-5-[3-(1,3,5-trimethylpyrazol-4-yl)pyrazolo[1,5-a]pyridin-5-yl]furan-3-carboxylic acid]
8.00 to 11.00		Cc1noc(C)c1-c1cnn2ccc(-c3ncc(C(=O)O)o3)cc12 [Cpd 24, 2-[3-(3,5-dimethylisoxazol-4-yl)pyrazolo[1,5-a]pyridin-5-yl]oxazole-5-carboxylic acid]
8.00 to 11.00	8.00 to 11.00	Cc1nn(C)c(C)c1-c1cnn2ccc(-c3cc(C(=O)O)c(C4CC4)o3)cc12 [Cpd 15, 2-cyclopropyl-5-[3-(1,3,5-trimethylpyrazol-4-yl)pyrazolo[1,5-a]pyridin-5-yl]furan-3-carboxylic acid]
8.00 to 11.00		CCc1oc(-c2ccn3ncc(-c4c(C)nn(C)c4C)c3c2)cc1C(=O)O [Cpd 26, 2-ethyl-5-[3-(1,3,5-trimethylpyrazol-4-yl)pyrazolo[1,5-a]pyridin-5-yl]furan-3-carboxylic acid]
8.00 to 11.00		Cc1nn(C(C)C)c(C)c1-c1cnn2ccc(-c3nc(C(F)F)c(C(=O)O)s3)cc12 [Cpd 46, 4-(difluoromethyl)-2-[3-(1-isopropyl-3,5-dimethyl-pyrazol-4-yl)pyrazolo[1,5-a]pyridin-5-yl]thiazole-5-carboxylic acid]
8.00 to 11.00	8.00 to 11.00	Cc1nn(C)cc1-c1cnn2ccc(-c3cc(C(=O)O)co3)cc12 [Cpd 14, 5-[3-(1,3-dimethylpyrazol-4-yl)pyrazolo[1,5-a]pyridin-5-yl]furan-3-carboxylic acid]

Reference: patent publication US20220144823A1, “PYRAZOLOPYRIDINE DERIVATIVES AS INHIBITORS OF PASK” (Galapagos NV, priority 2019, published 2022)
